Laboratory results from ChEMBL document CHEMBL1142270, “Synthesis, thermal stability, antimalarial activity of symmetrically and asymmetrically substituted tetraoxanes” (Bioorg Med Chem Lett, 2008).
Active and inactive are the calls of the source. No cut-off for these calls is given here.

How the values were obtained:
Plasmodium falciparum [1] = assay: Antimalarial activity against Plasmodium falciparum W2 in parasite LDH assay to 16.72 uM; type: functional, organism-based
Plasmodium falciparum [2] = assay: Antimalarial activity against Plasmodium falciparum D6 in parasite LDH assay to 16.72 uM; type: functional, organism-based
Plasmodium falciparum [3] = assay: Antimalarial activity against Plasmodium falciparum D6 in parasite LDH assay; type: functional, organism-based
[4] = Selectivity index, ratio of IC50 for African green monkey (Cercopithecus aethiops) Vero cells to IC50 for Plasmodium falciparum D6; type: functional
Vero = assay: Cytotoxicity against african green monkey Vero cells by neutral red assay upto 16.72 uM; type: cell-based; conditions: chlorocebus sabaeus
Plasmodium falciparum [5] = assay: Antimalarial activity against Plasmodium falciparum W2 in parasite LDH assay; type: functional, organism-based
[6] = Selectivity index, ratio of IC50 for african green monkey (Cercopithecus aethiops) Vero cells to IC50 for Plasmodium falciparum W2; type: functional

Structure (SMILES)	Activity (Plasmodium falciparum [1])	Activity (Plasmodium falciparum [2])	IC50 (Plasmodium falciparum [3]) [nM]	Ratio IC50 [4]	Activity (Vero)	IC50 (Plasmodium falciparum [5]) [nM]	Ratio IC50 [6]
FC(F)(F)c1ccc(C2OOC(c3ccc(C(F)(F)F)cc3)OO2)cc1 (stereo not given)	inactive	inactive					
Cc1ccc(C2OOC(c3ccc(C)cc3)OO2)cc1 (stereo not given)			1470	>11.9	Non-toxic	1180	>14.9
c1ccc(C2OOC3(CCCCCC3)OO2)cc1			9990	>1.9	Non-toxic	7590	>2.5
Clc1ccccc1C1OOC2(CCCCC2)OO1			14000	>1.3	Non-toxic	9240	>1.9
c1ccc(C2OOC3(CCCCC3)OO2)cc1			2200	>9.2	Non-toxic	1820	>11.1
Brc1cccc(C2OOC(c3cccc(Br)c3)OO2)c1 (stereo not given)	inactive	inactive					
Clc1ccc(C2OOC3(CCCC3)OO2)cc1			16700	>1	Non-toxic	16700	>1
CCN(CC)CCCC(C)Nc1ccnc2cc(Cl)ccc12 (stereo not given) [CHLOROQUINE]					Non-toxic		
Clc1ccccc1C1OOC(c2ccccc2Cl)OO1 (stereo not given)	inactive	inactive					
Clc1ccc(C2OOC3(CCCCCC3)OO2)cc1			16700	>1	Non-toxic	16700	>1
Brc1ccc(C2OOC3(CCCC3)OO2)cc1	inactive	inactive					
Clc1ccc(C2OOC(c3ccc(Cl)cc3)OO2)cc1 (stereo not given)			4470	>3.4	Non-toxic	3190	>4.8
C[C@@H]1CC[C@H]2[C@@H](C)C(=O)O[C@@H]3O[C@@]4(C)CC[C@@H]1[C@]32OO4 [ARTEMISININ]			35	>476	Non-toxic	15	>1400
Brc1ccc(C2OOC3(CCCCCC3)OO2)cc1	inactive	inactive					
Clc1ccc(C2OOC3(CCCCC3)OO2)cc1			2660	>6.6	Non-toxic	2590	>6.8
Clc1cccc(C2OOC3(CCCCC3)OO2)c1			2140	>8.2	Non-toxic	2470	>7.1
Cc1cccc(C2OOC(c3cccc(C)c3)OO2)c1 (stereo not given)			960	>18.2	Non-toxic	770	>22.7
Fc1ccc(C2OOC(c3ccc(F)cc3)OO2)cc1 (stereo not given)			1640	>10.4	Non-toxic	1140	>14.9
Brc1ccc(C2OOC3(CCCCC3)OO2)cc1			3810	>4	Non-toxic	5390	>2.8
Brc1ccc(C2OOC(c3ccc(Br)cc3)OO2)cc1 (stereo not given)			1390	>8.5	Non-toxic	670	>13.6
Cc1ccccc1C1OOC(c2ccccc2C)OO1 (stereo not given)			2460	>7.1	Non-toxic	1290	>13.6
FC(F)(F)c1cccc(C2OOC(c3cccc(C(F)(F)F)c3)OO2)c1 (stereo not given)	inactive	inactive					
Clc1cccc(C2OOC(c3cccc(Cl)c3)OO2)c1 (stereo not given)			1370	>11.1	Non-toxic	700	>21.6
Brc1ccccc1C1OOC(c2ccccc2Br)OO1 (stereo not given)	inactive	inactive					
